This note sets out measurements from ChEMBL document CHEMBL1144636, “Quinazolinone fungal efflux pump inhibitors. Part 3: (N-methyl)piperazine variants and pharmacokinetic optimization” (Bioorg Med Chem Lett, 2007).

A value given as a limit tells only on which side of the number the result lay.

Broadly, the clearance is a measure of how efficiently the substance is removed, as volume per time.

The first data set has as its system Nakaseomyces glabratus. Nature of the data set: In vitro potentiation of fluconazole antifungal activity in Candida glabrata YEM19 assessed as 8 fold reduction in fluconazole MIC. The class given is functional.
Details: not given
With `COc1ccc(N(C(=O)Nc2ccc(F)cc2)C(C)c2nc3ccccc3c(=O)n2N2CCN(C)CC2)c(OC)c1` (stereo unspecified), the Activity is 4 µg/mL.

Consider `CNCC(=O)N1CCN(n2c(C(C)N(C(=O)Nc3ccc(F)cc3)c3ccc(OC)cc3OC)nc3ccccc3c2=O)CC1` (stereo unspecified), for which the Activity is 4 µg/mL.

On to `COc1ccc(N(C(=O)Nc2ccc(F)cc2)C(C)c2nc3ccccc3c(=O)n2N2CCN(C=O)CC2)c(OC)c1` (stereo unspecified), for which the Activity was found to be 4 µg/mL.

Consider `COc1ccc(N(C(=O)Nc2ccc(F)cc2)C(C)c2nc3ccccc3c(=O)n2N2CCN(C(=O)[C@H]3CCCN3)CC2)c(OC)c1` (stereo partly specified), for which the Activity turned out to be 2 µg/mL.

As for `COC(=O)N[C@@H]1CCN(C(=O)N2CCN(n3c(C(C)N(C(=O)Nc4ccc(F)cc4)c4ccc(OC)cc4OC)nc4ccccc4c3=O)CC2)C1` (stereo partly specified), the Activity was 0.5 µg/mL.

For the molecule `COc1ccc(N(C(=O)Nc2ccc(F)cc2)C(C)c2nc3ccccc3c(=O)n2N2CCNCC2)c(OC)c1` (stereo unspecified), the Activity is 32 µg/mL.

Take `COc1ccc(N(C(=O)Nc2ccc(F)cc2)C(C)c2nc3ccccc3c(=O)n2N2CCCCC2)c(OC)c1` (stereo unspecified): the Activity is over 32 µg/mL.

As to `COC(=O)NCC(=O)N1CCN(n2c(C(C)N(C(=O)Nc3ccc(F)cc3)c3ccc(OC)cc3OC)nc3ccccc3c2=O)CC1` (stereo unspecified), the Activity is 2 µg/mL.

On to `COC(=O)N[C@@H](C)C(=O)N1CCN(n2c([C@H](C)N(C(=O)Nc3ccc(F)cc3)c3ccc(OC)cc3OC)nc3cc(F)ccc3c2=O)CC1`, for which the Activity is 0.0625 µg/mL.

Take `COc1ccc(N(C(=O)Nc2ccc(F)cc2)C(C)c2nc3ccccc3c(=O)n2N2CCN(C(=O)C3CCCC3)CC2)c(OC)c1` (stereo unspecified): the Activity was 0.125 µg/mL.

Turning to `COC(=O)N[C@H](C)C(=O)N1CCN(n2c(C(C)N(C(=O)Nc3ccc(F)cc3)c3ccc(OC)cc3OC)nc3ccccc3c2=O)CC1` (stereo partly specified), the Activity amounted to 0.5 µg/mL.

In the case of `COc1ccc(N(C(=O)Nc2cccc(Cl)c2)C(C)c2nc3ccccc3c(=O)n2N2CCN(C)CC2)c(OC)c1` (stereo unspecified), the Activity amounted to 4 µg/mL.

On to `COc1ccc(N(C(=O)Nc2ccc(F)cc2)C(C)c2nc3ccccc3c(=O)n2N2CCN(C(=O)[C@@H]3CCCN3)CC2)c(OC)c1` (stereo partly specified), for which the Activity was determined as 4 µg/mL.

On to `COc1ccc(N(C(=O)Nc2ccc(F)cc2)C(C)c2nc3ccccc3c(=O)n2N2CCN(C(=O)C3CCCO3)CC2)c(OC)c1` (stereo unspecified), for which the Activity turned out to be 0.125 µg/mL.

Regarding `COc1ccc(N(C(=O)Nc2ccc(F)cc2)C(C)c2nc3ccccc3c(=O)n2N2CCN(C(=O)[C@@H]3CCCN3C)CC2)c(OC)c1` (stereo partly specified), the Activity was 2 µg/mL.

In a further data set the test system is Serum. Nature of the data set: Protein binding in Sprague-Dawley rat serum. The class given is ADME, cell-free. On the set-up: concentration or dose not given beside the values.
Details: not given
In turn, `COc1ccc(N(C(=O)Nc2ccc(F)cc2)C(C)c2nc3ccccc3c(=O)n2N2CCN(C)CC2)c(OC)c1` (stereo unspecified) yielded an Activity of 74%.

Turning to `COC(=O)N[C@@H](C)C(=O)N1CCN(n2c([C@H](C)N(C(=O)Nc3ccc(F)cc3)c3ccc(OC)cc3OC)nc3cc(F)ccc3c2=O)CC1`, the Activity stood at 87%.

The molecule `COC(=O)N[C@H](C)C(=O)N1CCN(n2c(C(C)N(C(=O)Nc3ccc(F)cc3)c3ccc(OC)cc3OC)nc3ccccc3c2=O)CC1` (stereo partly specified) gave an Activity of 82%.

Take `COc1ccc(N(C(=O)Nc2cccc(Cl)c2)C(C)c2nc3ccccc3c(=O)n2N2CCN(C)CC2)c(OC)c1` (stereo unspecified): the Activity was found to be 98%.

In the case of `COc1ccc(N(C(=O)Nc2ccc(F)cc2)C(C)c2nc3ccccc3c(=O)n2N2CCN(C(=O)[C@@H]3CCCN3)CC2)c(OC)c1` (stereo partly specified), the Activity is 77%.

Tested on in the next data set: not listed separately
Nature of the data set: Total clearance in Sprague-Dawley rat at 5 mg/kg, iv. Type of data set: ADME, organism-based. On the set-up: dose 5 mg/kg, route intravenous. As to conditions: in vivo.
The molecule `COC(=O)N[C@@H](C)C(=O)N1CCN(n2c([C@H](C)N(C(=O)Nc3ccc(F)cc3)c3ccc(OC)cc3OC)nc3cc(F)ccc3c2=O)CC1` had a clearance of 125 mL/min/kg.

In turn, `COc1ccc(N(C(=O)Nc2cccc(Cl)c2)C(C)c2nc3ccccc3c(=O)n2N2CCN(C)CC2)c(OC)c1` (stereo unspecified) showed a clearance of 83.3 mL/min/kg.

Tested on in the next data set: not listed separately
Nature of the data set: Stability in Sprague-Dawley rat hepatocyte after 24 hrs. Type of data set: ADME, cell-based. As to conditions: hepatocytes, read-out: Stability.
As to `COc1ccc(N(C(=O)Nc2ccc(F)cc2)C(C)c2nc3ccccc3c(=O)n2N2CCN(C)CC2)c(OC)c1` (stereo unspecified), the remaining at 24 h was 18%.

Regarding `COC(=O)N[C@@H]1CCN(C(=O)N2CCN(n3c(C(C)N(C(=O)Nc4ccc(F)cc4)c4ccc(OC)cc4OC)nc4ccccc4c3=O)CC2)C1` (stereo partly specified), the remaining at 24 h amounted to 4%.

Turning to `COC(=O)N[C@H](C)C(=O)N1CCN(n2c(C(C)N(C(=O)Nc3ccc(F)cc3)c3ccc(OC)cc3OC)nc3ccccc3c2=O)CC1` (stereo partly specified), the remaining at 24 h amounted to 7%.

As for `COc1ccc(N(C(=O)Nc2ccc(F)cc2)C(C)c2nc3ccccc3c(=O)n2N2CCN(C(=O)[C@@H]3CCCN3)CC2)c(OC)c1` (stereo partly specified), the remaining at 24 h is 77%.

Another data set deals with Candida albicans. Kind of data set: In vitro potentiation of fluconazole antifungal activity in Candida albicans YEM15 assessed as 8 fold reduction in fluconazole MIC. The class given is functional.
Details: not given
On to `COc1ccc(N(C(=O)Nc2ccc(F)cc2)C(C)c2nc3ccccc3c(=O)n2N2CCN(C)CC2)c(OC)c1` (stereo unspecified), for which the Activity turned out to be 4 µg/mL.

As to `CNCC(=O)N1CCN(n2c(C(C)N(C(=O)Nc3ccc(F)cc3)c3ccc(OC)cc3OC)nc3ccccc3c2=O)CC1` (stereo unspecified), the Activity was over 32 µg/mL.

As for `COc1ccc(N(C(=O)Nc2ccc(F)cc2)C(C)c2nc3ccccc3c(=O)n2N2CCN(C=O)CC2)c(OC)c1` (stereo unspecified), the Activity is 2 µg/mL.

For `COc1ccc(N(C(=O)Nc2ccc(F)cc2)C(C)c2nc3ccccc3c(=O)n2N2CCN(C(=O)[C@H]3CCCN3)CC2)c(OC)c1` (stereo partly specified), the Activity is over 32 µg/mL.

Turning to `COC(=O)N[C@@H]1CCN(C(=O)N2CCN(n3c(C(C)N(C(=O)Nc4ccc(F)cc4)c4ccc(OC)cc4OC)nc4ccccc4c3=O)CC2)C1` (stereo partly specified), the Activity was found to be 0.25 µg/mL.

`COc1ccc(N(C(=O)Nc2ccc(F)cc2)C(C)c2nc3ccccc3c(=O)n2N2CCNCC2)c(OC)c1` (stereo unspecified): the Activity is over 32 µg/mL.

As to `COc1ccc(N(C(=O)Nc2ccc(F)cc2)C(C)c2nc3ccccc3c(=O)n2N2CCCCC2)c(OC)c1` (stereo unspecified), the Activity is over 32 µg/mL.

Consider `COC(=O)NCC(=O)N1CCN(n2c(C(C)N(C(=O)Nc3ccc(F)cc3)c3ccc(OC)cc3OC)nc3ccccc3c2=O)CC1` (stereo unspecified), for which the Activity was over 32 µg/mL.

On to `COC(=O)N[C@@H](C)C(=O)N1CCN(n2c([C@H](C)N(C(=O)Nc3ccc(F)cc3)c3ccc(OC)cc3OC)nc3cc(F)ccc3c2=O)CC1`, for which the Activity worked out at 0.5 µg/mL.

As to `COc1ccc(N(C(=O)Nc2ccc(F)cc2)C(C)c2nc3ccccc3c(=O)n2N2CCN(C(=O)C3CCCC3)CC2)c(OC)c1` (stereo unspecified), the Activity worked out at 0.25 µg/mL.

Take `COC(=O)N[C@H](C)C(=O)N1CCN(n2c(C(C)N(C(=O)Nc3ccc(F)cc3)c3ccc(OC)cc3OC)nc3ccccc3c2=O)CC1` (stereo partly specified): the Activity turned out to be 4 µg/mL.

Take `COc1ccc(N(C(=O)Nc2cccc(Cl)c2)C(C)c2nc3ccccc3c(=O)n2N2CCN(C)CC2)c(OC)c1` (stereo unspecified): the Activity came to 1 µg/mL.

Take `COc1ccc(N(C(=O)Nc2ccc(F)cc2)C(C)c2nc3ccccc3c(=O)n2N2CCN(C(=O)[C@@H]3CCCN3)CC2)c(OC)c1` (stereo partly specified): the Activity was over 32 µg/mL.

Consider `COc1ccc(N(C(=O)Nc2ccc(F)cc2)C(C)c2nc3ccccc3c(=O)n2N2CCN(C(=O)C3CCCO3)CC2)c(OC)c1` (stereo unspecified), for which the Activity worked out at 0.5 µg/mL.

Regarding `COc1ccc(N(C(=O)Nc2ccc(F)cc2)C(C)c2nc3ccccc3c(=O)n2N2CCN(C(=O)[C@@H]3CCCN3C)CC2)c(OC)c1` (stereo partly specified), the Activity is 32 µg/mL.
